Reference: patent publication US20180265515A1 (Genentech, Inc., priority 2015, published 2018)

How the values were obtained:
[1] = biological target: T1, isolated recombinant JAK1 kinase domain (Homo sapiens, UniProt P23458); assay: JAK1 enzyme assay (Caliper LabChip, Ki); assay type: biochemical; conditions: recombinant JAK1 kinase domain, 25 μM ATP
T1 construct: The activity of the isolated recombinant JAK1 and JAK2 kinase domain was measured
Method: (§1) JAK Enzyme Assays were Carried Out as Follows:
(§2) The activity of the isolated recombinant JAK1 and JAK2 kinase domain was measured by monitoring phosphorylation of a peptide derived from JAK3 (Val-Ala-Leu-Val-Asp-Gly-Tyr-Phe-Arg-Leu-Thr-Thr, fluorescently labeled on the N-terminus with 5-carboxyfluorescein) using the Caliper LabChip® technology (Caliper Life Sciences, Hopkinton, Mass.). […] Reactions were incubated at 22° C. in 384-well polypropylene microtiter plates for 30 minutes and then stopped by addition of 25 μL of an EDTA containing solution (100 mM HEPES buffer (pH 7.2), 0.015% Brij-35, 150 mM EDTA), resulting in a final EDTA concentration of 50 mM. After termination of the kinase reaction, the proportion of phosphorylated product was determined as a fraction of total peptide substrate using the Caliper LabChip® 3000 according to the manufacturer's specifications. Ki values were then determined using the Morrison tight binding model (Morrison, J. F., Biochim. Biophys. Acta. 185:269-296 (1969); William, J. W. and Morrison, J. F., Meth. Enzymol., 63:437-467 (1979)) modified for ATP-competitive inhibition [Ki=Ki,app/(1+[ATP]/Km,app)].

[2] = biological target: T2, isolated recombinant JAK2 kinase domain (Homo sapiens, UniProt O60674); assay: JAK2 enzyme assay (Caliper LabChip, Ki); assay type: biochemical; conditions: 25 μM ATP
T2 construct: The activity of the isolated recombinant JAK1 and JAK2 kinase domain was measured
Method: as §1, §2

[3] = tested on: JAK1-dependent STAT6 phosphorylation downstream of IL-13 stimulation in BEAS-2B human bronchial epithelial cells; assay: JAK1 pathway assay in BEAS-2B cells (IL-13 stimulated STAT6 phosphorylation, MSD); assay type: cell-based; conditions: read-out: P-STAT6 BEAS2B + IL13 IC50
Method: JAK1 Pathway Assay in Cell Lines was Carried Out as Follows:
Inhibitor potency (EC50) was determined in cell-based assays designed to measure JAK1 dependent STAT phosphorylation. As noted above, inhibition of IL-4, IL-13, and IL-9 signaling by blocking the Jak/Stat signaling pathway can alleviate asthmatic symptoms in pre-clinical lung inflammation models (Mathew et al., 2001, J Exp Med 193(9): 1087-1096; Kudlacz et. al., 2008, Eur J. Pharmacol 582(1-3): 154-161).
In one assay approach, TF-1 human erythroleukemia cells obtained from the American Type Culture Collection (ATCC; Manassas, Va.) were used to measure JAK1-dependent STAT6 phosphorylation downstream of IL-13 stimulation. Prior to use in the assays, TF-1 cells were starved of GM-CSF overnight in OptiMEM medium (Life Technologies, Grand Island, N.Y.) supplemented with 0.5% charcoal/dextran stripped fetal bovine serum (FBS), 0.1 mM non-essential amino acids (NEAA), and 1 mM sodium pyruvate. The assays were run in 384-well plates in serum-free OptiMEM medium using 300,000 cells per well. In a second assay approach, BEAS-2B human bronchial epithelial cells obtained from ATCC were plated at 100,000 cells per well of a 96-well plate one day prior to the experiment. The BEAS-2B assay was run in complete growth medium (bronchial epithelial basal medium plus bulletkit; Lonza; Basel, Switzerland).
Test compounds were serially diluted 1:2 in DMSO and then diluted 1:50 in medium just before use. Diluted compounds were added to the cells, for a final DMSO concentration of 0.2%, and incubated for 30 min (for the TF-1 assay) or 1 hr (for the BEAS-2B assay) at 37° C. Then, cells were stimulated with human recombinant cytokine at their respective EC90 concentrations, as previously determined for each individual lot. Cells were stimulated with IL-13 (R&D Systems, Minneapolis, Minn.) for 15 min at 37° C. The TF-1 cell reactions were stopped by the direct addition of 10× lysis buffer (Cell Signaling Technologies, Danvers, Mass.), whereas the BEAS-2B cell incubations were halted by the removal of medium and addition of 1× lysis buffer. The resultant samples were frozen in the plates at −80° C. Compound mediated inhibition of STAT6 phosphorylation was measured in the cell lysates using MesoScale Discovery (MSD) technology (Gaithersburg, Md.). EC50 values were determined as the concentration of compound required for 50% inhibition of STAT phosphorylation relative to that measured for the DMSO control.

T2 sequence (O60674 849-1124 limits assumed): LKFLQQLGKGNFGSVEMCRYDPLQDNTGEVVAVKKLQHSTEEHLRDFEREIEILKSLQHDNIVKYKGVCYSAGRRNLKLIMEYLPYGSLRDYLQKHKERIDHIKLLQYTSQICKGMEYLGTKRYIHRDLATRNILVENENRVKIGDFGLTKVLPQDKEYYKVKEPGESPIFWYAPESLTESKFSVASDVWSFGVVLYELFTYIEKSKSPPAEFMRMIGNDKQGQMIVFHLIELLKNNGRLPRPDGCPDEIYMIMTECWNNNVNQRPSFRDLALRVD
T1 sequence (P23458 875-1153 limits assumed): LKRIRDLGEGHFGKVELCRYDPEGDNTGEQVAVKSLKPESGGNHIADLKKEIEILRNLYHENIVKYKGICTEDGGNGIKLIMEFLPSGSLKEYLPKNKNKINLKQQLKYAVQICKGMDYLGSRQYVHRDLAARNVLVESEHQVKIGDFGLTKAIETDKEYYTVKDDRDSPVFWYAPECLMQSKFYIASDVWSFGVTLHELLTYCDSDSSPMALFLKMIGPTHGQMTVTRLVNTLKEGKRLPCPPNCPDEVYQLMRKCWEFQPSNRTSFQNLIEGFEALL

Ki [1] [pM] | Ki [2] [pM] | Structure (SMILES) | IC50 [3] [pM]
240 | 390 | CSc1ccc(OC(F)F)c(-c2nn(CC(=O)N3CCC(NCC(C)(F)F)CC3)cc2NC(=O)c2cnn3cccnc23)c1 [Example 19, N-[3-[2-(difluoromethoxy)-5-methylsulfanyl-phenyl]-1-[2-[4-(2,2-difluoropropylamino)-1-piperidyl]-2-oxo-ethyl]pyrazol-4-yl]pyrazolo[1,5-a]pyrimidine-3-carboxamide] | 7400
200 | 330 | CSc1ccc(OC(F)F)c(-c2nn(CC(=O)N3CCC(NCC(C)(C)C#N)CC3)cc2NC(=O)c2cnn3cccnc23)c1 [Example 20, N-[1-[2-[4-[(2-cyano-2-methyl-propyl)amino]-1-piperidyl]-2-oxo-ethyl]-3-[2-(difluoromethoxy)-5-methylsulfanyl-phenyl]pyrazol-4-yl]pyrazolo[1,5-a]pyrimidine-3-carboxamide] | 11000
270 | 330 | CSc1ccc(OC(F)F)c(-c2nn(CC(=O)N3CCN(CCCC#N)CC3)cc2NC(=O)c2cnn3cccnc23)c1 [Example 21, N-[1-[2-[4-(3-cyanopropyl)piperazin-1-yl]-2-oxo-ethyl]-3-[2-(difluoromethoxy)-5-methylsulfanyl-phenyl]pyrazol-4-yl]pyrazolo[1,5-a]pyrimidine-3-carboxamide] | 9100
320 | 620 | CSc1ccc(OC(F)F)c(-c2nn(CC(=O)N3CCC(N(C)CC(=O)N4CCC4)CC3)cc2NC(=O)c2cnn3cccnc23)c1 [Example 22, N-[1-[2-[4-[[2-(azetidin-1-yl)-2-oxo-ethyl]-methyl-amino]-1-piperidyl]-2-oxo-ethyl]-3-[2-(difluoromethoxy)-5-methylsulfanyl-phenyl]pyrazol-4-yl]pyrazolo[1,5-a]pyrimidine-3-carboxamide] | 130000
240 | 310 | CSc1ccc(OC(F)F)c(-c2nn(CC(=O)N3CCC(N4CCN(C)C(=O)C4)CC3)cc2NC(=O)c2cnn3cccnc23)c1 [Example 23, N-[3-[2-(difluoromethoxy)-5-methylsulfanyl-phenyl]-1-[2-[4-(4-methyl-3-oxo-piperazin-1-yl)-1-piperidyl]-2-oxo-ethyl]pyrazol-4-yl]pyrazolo[1,5-a]pyrimidine-3-carboxamide] | 61000
220 | 320 | CSc1ccc(OC(F)F)c(-c2nn(CC(=O)N3CCC(N(C)CC(C)(F)F)CC3)cc2NC(=O)c2cnn3cccnc23)c1 [Example 24, N-[3-[2-(difluoromethoxy)-5-methylsulfanyl-phenyl]-1-[2-[4-[2,2-difluoropropyl(methyl)amino]-1-piperidyl]-2-oxo-ethyl]pyrazol-4-yl]pyrazolo[1,5-a]pyrimidine-3-carboxamide] | 4900
310 | 510 | CSc1ccc(OC(F)F)c(-c2nn(CC(=O)N3CCC(CN4CCN(CC(=O)N(C)C)CC4)CC3)cc2NC(=O)c2cnn3cccnc23)c1 [Example 25, N-(3-(2-(difluoromethoxy)-5-(methylthio)phenyl)-1-(2-(4-((4-(2-(dimethylamino)-2-oxoethyl)piperazin-1-yl)methyl)piperidin-1-yl)-2-oxoethyl)-1H-pyrazol-4-yl)pyrazolo[1,5-a]pyrimidine-3-carboxamide] | 18000
240 | 390 | CSc1ccc(OC(F)F)c(-c2nn(CC(=O)N3CCC(N(C)CC(C)(C)C#N)CC3)cc2NC(=O)c2cnn3cccnc23)c1 [Example 26, N-[1-[2-[4-[(2-cyano-2-methyl-propyl)-methyl-amino]-1-piperidyl]-2-oxo-ethyl]-3-[2-(difluoromethoxy)-5-methylsulfanyl-phenyl]pyrazol-4-yl]pyrazolo[1,5-a]pyrimidine-3-carboxamide] | 12000
230 | 320 | CSc1ccc(OC(F)F)c(-c2nn(CC(=O)N3CCC(N4CCSCC4)CC3)cc2NC(=O)c2cnn3cccnc23)c1 [Example 27, N-[3-[2-(difluoromethoxy)-5-methylsulfanyl-phenyl]-1-[2-oxo-2-(4-thiomorpholino-1-piperidyl)ethyl]pyrazol-4-yl]pyrazolo[1,5-a]pyrimidine-3-carboxamide] | 5100
220 | 260 | CNCCn1cc(NC(=O)c2cnn3cccnc23)c(-c2cc(SC)ccc2OC(F)F)n1 [Example 28, N-[3-[2-(difluoromethoxy)-5-methylsulfanyl-phenyl]-1-[2-(methylamino)ethyl]pyrazol-4-yl]pyrazolo[1,5-a]pyrimidine-3-carboxamide] | 3000
260 | 370 | CSc1ccc(OC(F)F)c(-c2nn(CC(=O)N3CCC(N(C)CC(C)C#N)CC3)cc2NC(=O)c2cnn3cccnc23)c1 (stereo not drawn) [Example 29, N-[1-[2-[4-[2-cyanopropyl(methyl)amino]-1-piperidyl]-2-oxo-ethyl]-3-[2-(difluoromethoxy)-5-methylsulfanyl-phenyl]pyrazol-4-yl]pyrazolo[1,5-a]pyrimidine-3-carboxamide] | 9000
290 | 380 | CSc1ccc(OC(F)F)c(-c2nn(CC(=O)N3CCC(NCC(C)C#N)CC3)cc2NC(=O)c2cnn3cccnc23)c1 (stereo not drawn) [Example 30, N-[1-[2-[4-(2-cyanopropylamino)-1-piperidyl]-2-oxo-ethyl]-3-[2-(difluoromethoxy)-5-methylsulfanyl-phenyl]pyrazol-4-yl]pyrazolo[1,5-a]pyrimidine-3-carboxamide] | 8700
190 | 250 | CSc1ccc(OC(F)F)c(-c2nn(CC(=O)N3CCC(N4CCCC(C#N)C4)CC3)cc2NC(=O)c2cnn3cccnc23)c1 (stereo not drawn) [Example 31, N-[1-[2-[4-(3-cyano-1-piperidyl)-1-piperidyl]-2-oxo-ethyl]-3-[2-(difluoromethoxy)-5-methylsulfanyl-phenyl]pyrazol-4-yl]pyrazolo[1,5-a]pyrimidine-3-carboxamide] | 8300
230 | 330 | CSc1ccc(OC(F)F)c(-c2nn(CC(=O)N3CCC(N4CCC(C#N)C4)CC3)cc2NC(=O)c2cnn3cccnc23)c1 (stereo not drawn) [Example 32, N-[1-[2-[4-(3-cyanopyrrolidin-1-yl)-1-piperidyl]-2-oxo-ethyl]-3-[2-(difluoromethoxy)-5-methylsulfanyl-phenyl]pyrazol-4-yl]pyrazolo[1,5-a]pyrimidine-3-carboxamide] | 11000
380 | 730 | CSc1ccc(OC(F)F)c(-c2nn(CC(=O)N3CCN(CC4CCN(CC(=O)N(C)C)CC4)CC3)cc2NC(=O)c2cnn3cccnc23)c1 [Example 33, N-[3-[2-(difluoromethoxy)-5-methylsulfanyl-phenyl]-1-[2-[4-[[1-[2-(dimethylamino)-2-oxo-ethyl]-4-piperidyl]methyl]piperazin-1-yl]-2-oxo-ethyl]pyrazol-4-yl]pyrazolo[1,5-a]pyrimidine-3-carboxamide] | 35000
280 | 300 | CSc1ccc(OC(F)F)c(-c2nn(CC(=O)N3CC4CCN(C)C4C3)cc2NC(=O)c2cnn3cccnc23)c1 (stereo not drawn) [Example 34, N-[3-[2-(difluoromethoxy)-5-methylsulfanyl-phenyl]-1-[2-(1-methyl-2,3,3a,4,6,6a-hexahydropyrrolo[2,3-c]pyrrol-5-yl)-2-oxo-ethyl]pyrazol-4-yl]pyrazolo[1,5-a]pyrimidine-3-carboxamide] | 5300
